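Grown in 96-well plates, cells were treated for 48 hours with each compound at five concentrations. Insufficient inhibition: endpoint recorded as highest concentration tested. Here, GI50 denotes the concentration required for 50% inhibition of growth.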 The source made the active and inactive calls. No stated cut-off is given here; in the data, active = GI50 up to about 1.1 µM and inactive = higher.
Tests used:
Assay in all cases: NCI anticancer screen, dose series, 48 h
[1] = test system: 786-0
[2] = test system: DU-145
[3] = test system: HCC 2998
[4] = test system: HOP-62
[5] = test system: HT-29
[6] = test system: IGROV-1
[7] = test system: KM12
[8] = test system: LOX IMVI
[9] = test system: MCF7
[10] = test system: MDA-MB-435
[11] = test system: Malme-3M
[12] = test system: NCI-H23
[13] = test system: NCI-H522
[14] = test system: OVCAR-3
[15] = test system: PC-3
[16] = test system: SK-MEL-2
[17] = test system: SK-OV-3
[18] = test system: SNB-19
[19] = test system: SW-620
[20] = test system: T47D

Structure (SMILES) | GI50 [1] | GI50 [2] | GI50 [3] | GI50 [4] | GI50 [5] | GI50 [6] | GI50 [7] | GI50 [8] | GI50 [9] | GI50 [10] | GI50 [11] | GI50 [12] | GI50 [13] | GI50 [14] | GI50 [15] | GI50 [16] | GI50 [17] | GI50 [18] | GI50 [19] | GI50 [20]
COC(=O)CN1Cc2cc(C)cc(c2O)CN(CC(=O)OC)Cc2cc(C)cc(c2O)CN(CC(=O)OC)Cc2cc(C)cc(c2O)C1 | > 100 µM (inactive) | > 41 µM (inactive) | 2.03 µM (inactive) | > 40.3 µM (inactive) | > 47.9 µM (inactive) | > 100 µM (inactive) | > 56.2 µM (inactive) | > 65.8 µM (inactive) | > 42 µM (inactive) | > 100 µM (inactive) | > 100 µM (inactive) | > 100 µM (inactive) | > 100 µM (inactive) | > 58.2 µM (inactive) | > 32.9 µM (inactive) | > 39.8 µM (inactive) | > 45.5 µM (inactive) | > 100 µM (inactive) | > 87.3 µM (inactive) | > 20.1 µM (inactive)
CC(C)C[C@H](NC(=O)CCc1cccc2ccccc12)B(O)O | 0.923 µM (active) | 4.62 µM (inactive) | 0.64 µM (active) | 3.22 µM (inactive) | 0.628 µM (active) | 2.13 µM (inactive) | 1.89 µM (inactive) | 0.461 µM (active) | 0.56 µM (active) | 0.31 µM (active) | 0.871 µM (active) | 1.16 µM (inactive) | 1.24 µM (inactive) | 0.463 µM (active) | 3.9 µM (inactive) | 1.03 µM (active) | 8.73 µM (inactive) | 5.43 µM (inactive) | 0.676 µM (active) | 1.25 µM (inactive)
COc1cc(S(=O)(=O)Nc2nc(-c3ccc(/N=C/c4ccccc4O)cc3)cs2)ccc1Cl | 48.2 µM (inactive) | 69.2 µM (inactive) | 45.5 µM (inactive) | 40.3 µM (inactive) | 44 µM (inactive) | 31.4 µM (inactive) | 53.8 µM (inactive) | 47 µM (inactive) | 27.8 µM (inactive) | 54.5 µM (inactive) | 40.3 µM (inactive) | 36.3 µM (inactive) | 33.7 µM (inactive) | 33 µM (inactive) | 39.1 µM (inactive) | 34.7 µM (inactive) | 44.9 µM (inactive) | 34.2 µM (inactive) | 79.8 µM (inactive) | 27.4 µM (inactive)
N=C(N)C(/N=N\c1ccccc1)C(=N)N (centres undefined) | 35.6 µM (inactive) | > 100 µM (inactive) | 16.5 µM (inactive) | 61.7 µM (inactive) | 29.8 µM (inactive) | 33.2 µM (inactive) | 29.4 µM (inactive) | 34 µM (inactive) | 25.6 µM (inactive) | 16.9 µM (inactive) | 51.1 µM (inactive) | 50.4 µM (inactive) | 36 µM (inactive) | 38.5 µM (inactive) | 31.8 µM (inactive) | 23.4 µM (inactive) | 64.6 µM (inactive) | 53.7 µM (inactive) | 34.4 µM (inactive) | 46.3 µM (inactive)
COP(=O)(OC)/C(=C/c1cn(C(c2ccccc2)(c2ccccc2)c2ccccc2)cn1)NC=O | 29.4 µM (inactive) | 21.6 µM (inactive) | 16.7 µM (inactive) | 17.7 µM (inactive) | 16.4 µM (inactive) | 20.5 µM (inactive) | 32.9 µM (inactive) | 15.9 µM (inactive) | 16 µM (inactive) | 18.1 µM (inactive) | 18.6 µM (inactive) | 19.5 µM (inactive) | 15.5 µM (inactive) | 14.9 µM (inactive) | 17 µM (inactive) | 16.9 µM (inactive) | 34 µM (inactive) | 35 µM (inactive) | 26 µM (inactive) | 26.4 µM (inactive)
C[C@@H](NC(=O)c1ccc(CNC(=O)/C=C/c2cccc(Oc3ccccc3)c2)cc1)c1ccccc1 | 13.9 µM (inactive) | > 100 µM (inactive) | > 100 µM (inactive) | 17.9 µM (inactive) | 22.6 µM (inactive) | 48.1 µM (inactive) | > 100 µM (inactive) | > 100 µM (inactive) | 97.1 µM (inactive) | > 100 µM (inactive) | > 76.2 µM (inactive) | > 100 µM (inactive) | > 66.7 µM (inactive) | 72.1 µM (inactive) | > 42.4 µM (inactive) | > 60.1 µM (inactive) | > 93.1 µM (inactive) | 16.4 µM (inactive) | > 100 µM (inactive) | 27.7 µM (inactive)
C=CCN(c1cc(OCc2ccccc2)c(NC(C)=O)cc1[N+](=O)[O-])S(C)(=O)=O | 20.6 µM (inactive) | > 100 µM (inactive) | > 100 µM (inactive) | 22 µM (inactive) | > 100 µM (inactive) | 21.1 µM (inactive) | > 100 µM (inactive) | 50.6 µM (inactive) | 52.2 µM (inactive) | > 100 µM (inactive) | 26.7 µM (inactive) | 18.4 µM (inactive) | 35.5 µM (inactive) | 34.9 µM (inactive) | > 100 µM (inactive) | 26.9 µM (inactive) | 17.9 µM (inactive) | 17.9 µM (inactive) | > 100 µM (inactive) | 29.3 µM (inactive)
COc1ccc2nccc(NCCCN3CCN(CCCNc4ccnc5ccc(OC)cc45)CC3)c2c1 | 0.582 µM (active) | 0.508 µM (active) | 0.505 µM (active) | 0.966 µM (active) | 0.172 µM (active) | 0.283 µM (active) | 0.357 µM (active) | 0.272 µM (active) | 0.0403 µM (active) | 0.427 µM (active) | 0.644 µM (active) | 0.51 µM (active) | 0.0334 µM (active) | 1.22 µM (inactive) | 0.44 µM (active) | 1.25 µM (inactive) | 1.53 µM (inactive) | 0.927 µM (active) | 0.11 µM (active) | 0.887 µM (active)
O=C1Nc2cccc(Cl)c2/C1=C\c1c(Cl)nc2n1CCS2 | > 100 µM (inactive) | > 100 µM (inactive) | > 100 µM (inactive) | > 100 µM (inactive) | > 100 µM (inactive) | > 100 µM (inactive) | > 100 µM (inactive) | > 100 µM (inactive) | 8.43 µM (inactive) | 35.1 µM (inactive) | > 100 µM (inactive) | > 100 µM (inactive) | > 100 µM (inactive) | > 100 µM (inactive) | > 100 µM (inactive) | > 100 µM (inactive) | > 100 µM (inactive) | > 100 µM (inactive) | > 100 µM (inactive) | 48.3 µM (inactive)
Cc1ccc(/C=N/Nc2ccc3ccccc3n2)s1 | 18.8 µM (inactive) | > 10 µM (inactive) | 15.3 µM (inactive) | 20.8 µM (inactive) | 7.46 µM (inactive) | 16.3 µM (inactive) | 32.3 µM (inactive) | 17.1 µM (inactive) | 17.5 µM (inactive) | 15.8 µM (inactive) | 14.9 µM (inactive) | 18.6 µM (inactive) | 15.7 µM (inactive) | 5.58 µM (inactive) | 13.2 µM (inactive) | > 100 µM (inactive) | 30.2 µM (inactive) | 21.3 µM (inactive) | 23.2 µM (inactive) | 8.28 µM (inactive)
CCc1cccc(CC)c1Nc1nc(-c2ccccc2-c2ccccc2)cs1 | > 100 µM (inactive) | > 100 µM (inactive) | > 100 µM (inactive) | > 100 µM (inactive) |  | 43.7 µM (inactive) | 94.8 µM (inactive) | > 100 µM (inactive) | 66.2 µM (inactive) | 35 µM (inactive) | > 100 µM (inactive) | 93.8 µM (inactive) | 84.7 µM (inactive) | 57.1 µM (inactive) | 53.2 µM (inactive) | > 100 µM (inactive) | > 100 µM (inactive) | > 100 µM (inactive) | > 100 µM (inactive) | > 100 µM (inactive)
CC1=CC(C)(C)[C@H]2O[C@@]3(O)C[C@]4(C)[C@H]5C[C@@](C(C)C)(O[C@H]4c4ccoc4)O[C@H]4[C@]5(C3)O[C@@]1(O)[C@]24O | 89.1 µM (inactive) | > 100 µM (inactive) | > 100 µM (inactive) | 23.5 µM (inactive) | > 100 µM (inactive) | > 100 µM (inactive) | > 100 µM (inactive) | > 100 µM (inactive) | > 100 µM (inactive) | > 100 µM (inactive) | 40.9 µM (inactive) | > 100 µM (inactive) | 5.26 µM (inactive) | > 100 µM (inactive) | > 100 µM (inactive) | > 100 µM (inactive) | > 100 µM (inactive) | 45.4 µM (inactive) | > 100 µM (inactive) | > 100 µM (inactive)
O=[Se](O)O | 2.47 µM (inactive) | 1.47 µM (inactive) | > 20.3 µM (inactive) | 0.577 µM (active) | 3.17 µM (inactive) | 0.826 µM (active) | 1.63 µM (inactive) | 2.76 µM (inactive) | 9.75 µM (inactive) | 3.77 µM (inactive) | 31.7 µM (inactive) | 3.72 µM (inactive) | 12.2 µM (inactive) | 4.16 µM (inactive) | 1.1 µM (active) | 2.6 µM (inactive) | 0.984 µM (active) | 1.03 µM (active) | 12.9 µM (inactive) | > 40 µM (inactive)
N#CC1=C(C#N)/C(=C(\C#N)C(C#N)C#N)N=C1N | 39.4 µM (inactive) | 38.9 µM (inactive) | 33.4 µM (inactive) | 26.7 µM (inactive) | 23.5 µM (inactive) | 50.1 µM (inactive) | 64.4 µM (inactive) | 19.1 µM (inactive) | 45.8 µM (inactive) | 16.9 µM (inactive) | 17.1 µM (inactive) | 32.1 µM (inactive) | 13.8 µM (inactive) | 34.5 µM (inactive) | 28.7 µM (inactive) | 14.7 µM (inactive) | 57.9 µM (inactive) | 51.9 µM (inactive) | 28.5 µM (inactive) | > 100 µM (inactive)

— ChEMBL document CHEMBL1201862, “PubChem BioAssay data set” (2004)
